Patent publication US20070092467A1, “Oxyacetamide compounds useful for stimulating or inducing the growth and/or retarding the loss of keratin fibers” (L'OREAL, priority 2004, published 2007)
pIC50: −log10 of the molar value.

The compounds below were run against T1, type-1 15-PGDH (Homo sapiens, UniProt P15428) (assay: Test on type-1 15-PGDH (spectrophotometric, 340 nm, maximum reaction rate)). Conditions: IC50dh; 37° C., pH 7.4; read-out: Inhibition of 15-PGDH IC50.
T1 construct: made in house
T1 sequence (P15428 1-266): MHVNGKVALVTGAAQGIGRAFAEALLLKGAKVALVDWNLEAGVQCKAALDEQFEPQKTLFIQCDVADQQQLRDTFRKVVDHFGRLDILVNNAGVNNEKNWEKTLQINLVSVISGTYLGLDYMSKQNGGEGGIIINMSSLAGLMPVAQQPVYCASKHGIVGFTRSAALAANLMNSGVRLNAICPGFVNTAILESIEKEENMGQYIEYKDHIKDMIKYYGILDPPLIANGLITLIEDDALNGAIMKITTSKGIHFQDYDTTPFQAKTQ
Assay type: biochemical
Description: 1) Test on type-1 15-PGDH:
(§1) For the purposes of the test, this suspension is thawed and stored in ice.
(§2) 0.965 ml of this buffer (brought to 37° C. beforehand) is introduced into the cuvette of a spectrophotometer (Perkin-Elmer, Lambda 2) thermostatically maintained at 37° C., the measuring wavelength of which is set at 340 nm. 0.035 ml of enzymatic suspension at 37° C. is introduced into the cuvette concomitantly with the recording (corresponding to an increase in the optical density at 340 nm). The maximum reaction rate is recorded.

| SMILES | pIC50 |
| --- | --- |
| O=C(COc1cccc(Cl)c1)NCc1ccco1 [Compound 23] | 4.80 |

Same assay, conditions: compound at 50 μM

| SMILES | inhibition at 50 µM |
| --- | --- |
| O=C(COC1CCCCC1)NCc1ccccc1 [Compound 21] | 63% |
| CCCCCCOCC(=O)NCc1ccccc1 [Compound 22] | 47% |
| O=C(COc1cccc(Cl)c1)NCc1ccco1 [Compound 23] | 80% |
| O=C(COc1ccccc1)NCc1ccccc1 [Compound 24] | 55% |
| O=C(COc1cccc(Cl)c1)NCc1ccccc1 [Compound 25] | 50% |
| O=C(COc1ccc(Cl)cc1)NCc1ccccc1 [Compound 26] | 30% |

Same assay, conditions: compound at 100 μM; 37° C., pH 7.4, PGE2 50 μM, β-NAD 1.5 mM

| SMILES | inhibition at 100 µM |
| --- | --- |
| O=C(COCc1ccccc1)NC[C@@H]1CCCO1 (stereo in doubt) [Compound 14, 2-benzyloxy-N-(tetrahydrofuran-2-ylmethyl)acetamide] | 50% |
| Cc1cccc(C)c1NC(=O)COc1cccc2cccnc12 [Compound 1, N-(2,6-dimethylphenyl)-2-(quinolin-8-yloxy)acetamide] | 49% |
| O=C(COc1cccc2cccnc12)Nc1ccccc1Cl [Compound 2] | 115% |
| O=C(COc1cccc2cccnc12)Nc1ccccc1C(F)(F)F [Compound 3, 2-(quinolin-8-yloxy)-N-(2-trifluoromethylphenyl)acetamide] | 128% |
| CCOC(=O)c1ccc(NC(=O)COc2ccc(C(C)=O)cc2)cc1 [Compound 4, 4-[2-(4-Acetylphenoxy)acetylamino]benzoic acid ethyl] | 49% |
| Cc1nc2cc(OCC(=O)Nc3ccc(OC(F)(F)F)cc3)ccc2s1 [Compound 5, 2-(2-Methyl-benzothiazol-5-yloxy)-N-(4-trifluoromethoxy-phenyl) acetamide] | 53% |
| O=C(COc1ccc(-n2ccnc2)cc1)Nc1ccccc1Cl [Compound 6, N-(2-Chloro-phenyl)-2-(4-imidazol-1-yl-phenoxy)-acetamide] | 54% |
| O=C(COc1ccc2c(c1)C(=O)c1ccccc1-2)Nc1cccc(C(F)(F)F)c1 [Compound 7, 2-(9-Oxo-9H-fluoren-2-yloxy)-N-(3-trifluoromethyl-phenyl) acetamide] | 61% |
| O=C(COc1ccc2c(c1)C(=O)c1ccccc1-2)Nc1ccc(C(F)(F)F)cc1 [Compound 8, 2-(9-Oxo-9H-fluoren-2-yloxy)-N-(4-trifluoromethyl-phenyl) acetamide] | 65% |
| CCCCCCc1ccc(NC(=O)COc2ccc3sc(C)nc3c2)cc1 [Compound 9, N-(4-Hexyl-phenyl)-2-(2-methyl-benzothiazol-5-yloxy) acetamide] | 69% |
| O=C(COc1ccc(-n2cccc2)cc1)Nc1ccccc1C(F)(F)F [Compound 10] | 71% |
| O=C(COc1ccc2oc3ccccc3c2c1)Nc1ccc(OC(F)(F)F)cc1 [Compound 11, 2-(Dibenzofuran-2-yloxy)-N-(4-trifluoromethoxy-phenyl) acetamide] | 74% |
| O=C(COc1ccc(-n2ccnc2)cc1)Nc1ccccc1C(F)(F)F [Compound 12, 2-(4-imidazol-1-yl-phenoxy)-N-(2-trifluoromethyl-phenyl) acetamide] | 125% |
| COc1cc(C(C)=O)ccc1OCC(=O)Nc1ccccc1C(F)(F)F [Compound 13, 2-(4-Acetyl-2-methoxy-phenoxy)-N-(2-trifluoromethyl-phenyl) acetamide] | 126% |
| Cc1ccc(CNC(=O)COCc2ccccc2)o1 [Compound 15, 2-Benzyloxy-N-(5-methyl-furan-2-ylmethyl)-acetamide] | 51% |
| O=C(COCc1ccccc1)NC1CCCC1 [Compound 16, 2-Benzyloxy-N-cyclopentylacetamide] | 76% |
| CC(C)(C)c1ccc(OCC(=O)NC[Si](C)(C)C)cc1 [Compound 17, 2-(4-tert-Butyl-phenoxy)-N-trimethylsilanylmethyl-acetamide] | 50% |
| C[Si](C)(C)CNC(=O)COCc1ccccc1 [Compound 18, 2-Benzyloxy-N-trimethylsilanylmethyl-acetamide] | 88% |
| C[Si](C)(C)CNC(=O)COc1ccccc1 [Compound 19, 2-Phenoxy-N-trimethylsilanylmethyl-acetamide] | 95% |
| CSCCNC(=O)COc1ccccc1 [Compound 20] | 85% |
| O=C(COCc1ccccc1)NCc1ccccc1 [Compound 27] | 48% |
| N#Cc1ccc(-c2ccc(OCC(=O)Nc3cccc([N+](=O)[O-])c3)cc2)cc1 [Compound 28] | 54% |
| O=C(COc1ccccc1)NC[C@@H]1CCCO1 [Compound 29] | 54% |
| CCCCCCNC(=O)COc1ccccc1 [Compound 31] | 57% |
| CC(=O)c1ccc(OCC(=O)Nc2ccccc2C(F)(F)F)cc1 [Compound 32] | 59% |
| O=C(COc1ccccc1)NCc1ccccc1 [Compound 33] | 61% |
| O=C(COc1cccc2cccnc12)Nc1cccc([N+](=O)[O-])c1 [Compound 34] | 69% |
| O=C(COc1ccc(-c2ccccc2)cc1)Nc1ccccc1C(F)(F)F [Compound 35] | 70% |

The compounds below were run against T2, PGF synthase (Homo sapiens, UniProt P42330) (assay: Test on PGF synthase (spectrophotometric, 340 nm, maximum reaction rate)). Conditions: IC50fs; 37° C., pH 6.5; read-out: Inhibition of PGFS IC50.
T2 construct: made in house
T2 sequence (P42330 1-323): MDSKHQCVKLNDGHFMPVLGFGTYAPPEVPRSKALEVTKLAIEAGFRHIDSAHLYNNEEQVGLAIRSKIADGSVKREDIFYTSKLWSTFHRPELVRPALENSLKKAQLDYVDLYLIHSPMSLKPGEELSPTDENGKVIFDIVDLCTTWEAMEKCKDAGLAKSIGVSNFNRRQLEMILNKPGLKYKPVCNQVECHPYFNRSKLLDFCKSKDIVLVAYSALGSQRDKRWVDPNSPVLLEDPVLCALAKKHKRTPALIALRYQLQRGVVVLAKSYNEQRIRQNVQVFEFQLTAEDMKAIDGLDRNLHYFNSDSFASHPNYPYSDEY
Assay type: biochemical
Description: as §1
as §2, with “0.950 mL” for “0.965 ml”, “0.05 mL” for “0.035 ml”, “a reduction” for “an increase”

| SMILES | pIC50 |
| --- | --- |
| O=C(COc1cccc(Cl)c1)NCc1ccco1 [Compound 23] | < 4.30 |

Same assay, conditions: compound at 50 μM; read-out: Inhibition of PGFS % inhibition at 50 μM

| SMILES | inhibition at 50 µM |
| --- | --- |
| O=C(COC1CCCCC1)NCc1ccccc1 [Compound 21] | 24% |
| O=C(COc1cccc(Cl)c1)NCc1ccco1 [Compound 23] | 25% |
| O=C(COc1ccccc1)NCc1ccccc1 [Compound 24] | 4% |
